Experimental data: ChEMBL document CHEMBL1153245, “A profile of the in vitro anti-tumor activity of imidazolium-based ionic liquids” (2010)

Key:
Format in all cases: functional
ACHN = assay: Anticancer activity against human ACHN cells assessed cell growth at 10 uM after 48 hrs by sulforhodamine B assay relative to control
CAKI-1 = assay: Anticancer activity against human Caki1 cells assessed cell growth at 10 uM after 48 hrs by sulforhodamine B assay relative to control
RXF 393 = assay: Anticancer activity against human RXF393 cells assessed cell growth at 10 uM after 48 hrs by sulforhodamine B assay relative to control
TK-10 = assay: Anticancer activity against human TK10 cells assessed cell growth at 10 uM after 48 hrs by sulforhodamine B assay relative to control
DU-145 = assay: Anticancer activity against human DU145 cells assessed cell growth at 10 uM after 48 hrs by sulforhodamine B assay relative to control
MCF7 = assay: Anticancer activity against human MCF7 cells assessed cell growth at 10 uM after 48 hrs by sulforhodamine B assay relative to control
NCI/ADR-RES = assay: Anticancer activity against human NCI/ADR-RES cells assessed cell growth at 10 uM after 48 hrs by sulforhodamine B assay relative to control
MDA-MB-231 = assay: Anticancer activity against human MDA-MB-231 cells assessed cell growth at 10 uM after 48 hrs by sulforhodamine B assay relative to control
MDA-MB-435 = assay: Anticancer activity against human MDA-MB-435 cells assessed cell growth at 10 uM after 48 hrs by sulforhodamine B assay relative to control
BT-549 = assay: Anticancer activity against human BT549 cells assessed cell growth at 10 uM after 48 hrs by sulforhodamine B assay relative to control
T47D = assay: Anticancer activity against human T47D cells assessed cell growth at 10 uM after 48 hrs by sulforhodamine B assay relative to control
MDA-MB-468 = assay: Anticancer activity against human MDA-MB-468 cells assessed cell growth at 10 uM after 48 hrs by sulforhodamine B assay relative to control
K562 = assay: Anticancer activity against human K562 cells assessed cell growth at 10 uM after 48 hrs by sulforhodamine B assay relative to control
[1] = Anticancer activity against human RPMI8266 cells assessed cell growth at 10 uM after 48 hrs by sulforhodamine B assay relative to control
HOP-62 = assay: Anticancer activity against human HOP62 cells assessed cell growth at 10 uM after 48 hrs by sulforhodamine B assay relative to control
HOP-92 = assay: Anticancer activity against human HOP92 cells assessed cell growth at 10 uM after 48 hrs by sulforhodamine B assay relative to control
NCI-H226 = assay: Anticancer activity against human NCI-H226 cells assessed cell growth at 10 uM after 48 hrs by sulforhodamine B assay relative to control
NCI-H322M = assay: Anticancer activity against human NCI-H322M cells assessed cell growth at 10 uM after 48 hrs by sulforhodamine B assay relative to control
NCI-H460 = assay: Anticancer activity against human NCI-H460 cells assessed cell growth at 10 uM after 48 hrs by sulforhodamine B assay relative to control
NCI-H522 = assay: Anticancer activity against human NCI-H522 cells assessed cell growth at 10 uM after 48 hrs by sulforhodamine B assay relative to control
HCT-116 = assay: Anticancer activity against human HCT116 cells assessed cell growth at 10 uM after 48 hrs by sulforhodamine B assay relative to control
HCT-15 = assay: Anticancer activity against human HCT15 cells assessed cell growth at 10 uM after 48 hrs by sulforhodamine B assay relative to control
SW-620 = assay: Anticancer activity against human SW620 cells assessed cell growth at 10 uM after 48 hrs by sulforhodamine B assay relative to control
SF-295 = assay: Anticancer activity against human SF295 cells assessed cell growth at 10 uM after 48 hrs by sulforhodamine B assay relative to control
SF-539 = assay: Anticancer activity against human SF539 cells assessed cell growth at 10 uM after 48 hrs by sulforhodamine B assay relative to control
SNB-19 = assay: Anticancer activity against human SNB19 cells assessed cell growth at 10 uM after 48 hrs by sulforhodamine B assay relative to control
SNB-75 = assay: Anticancer activity against human SNB75 cells assessed cell growth at 10 uM after 48 hrs by sulforhodamine B assay relative to control
LOX IMVI = assay: Anticancer activity against human LOXIMVI cells assessed cell growth at 10 uM after 48 hrs by sulforhodamine B assay relative to control
Malme-3M = assay: Anticancer activity against human MALME-3M cells assessed cell growth at 10 uM after 48 hrs by sulforhodamine B assay relative to control
M14 = assay: Anticancer activity against human M14 cells assessed cell growth at 10 uM after 48 hrs by sulforhodamine B assay relative to control
SK-MEL-2 = assay: Anticancer activity against human SK-MEL-2 cells assessed cell growth at 10 uM after 48 hrs by sulforhodamine B assay relative to control
SK-MEL-28 = assay: Anticancer activity against human SK-MEL-28 cells assessed cell growth at 10 uM after 48 hrs by sulforhodamine B assay relative to control
SK-MEL-5 = assay: Anticancer activity against human SK-MEL-5 cells assessed cell growth at 10 uM after 48 hrs by sulforhodamine B assay relative to control
UACC-257 = assay: Anticancer activity against human UACC257 cells assessed cell growth at 10 uM after 48 hrs by sulforhodamine B assay relative to control
UACC-62 = assay: Anticancer activity against human UACC62 cells assessed cell growth at 10 uM after 48 hrs by sulforhodamine B assay relative to control
IGROV-1 = assay: Anticancer activity against human IGROV1 cells assessed cell growth at 10 uM after 48 hrs by sulforhodamine B assay relative to control
OVCAR-3 = assay: Anticancer activity against human OVCAR-3 cells assessed cell growth at 10 uM after 48 hrs by sulforhodamine B assay relative to control
OVCAR-4 = assay: Anticancer activity against human OVCAR4 cells assessed cell growth at 10 uM after 48 hrs by sulforhodamine B assay relative to control
OVCAR-8 = assay: Anticancer activity against human OVCAR8 cells assessed cell growth at 10 uM after 48 hrs by sulforhodamine B assay relative to control
A498 = assay: Anticancer activity against human A498 cells assessed cell growth at 10 uM after 48 hrs by sulforhodamine B assay relative to control
HL-60(TB) = assay: Anticancer activity against human HL-60(TB) cells assessed cell growth at 10 uM after 48 hrs by sulforhodamine B assay relative to control
CCRF-CEM = assay: Anticancer activity against human CCRF-CEM cells assessed cell growth at 10 uM after 48 hrs by sulforhodamine B assay relative to control
HCC 2998 = assay: Anticancer activity against human HCC2998 cells assessed cell growth at 10 uM after 48 hrs by sulforhodamine B assay relative to control

## Cn1cc[n+](Cc2ccccc2)c1.F[P-](F)(F)(F)(F)F
ACHN
  Activity: 96.35%
CAKI-1
  Activity: 83.75%
RXF 393
  Activity: 102.92%
TK-10
  Activity: 133.23%
DU-145
  Activity: 118.22%
MCF7
  Activity: 102.21%
NCI/ADR-RES
  Activity: 90.03%
MDA-MB-231
  Activity: 113.82%
MDA-MB-435
  Activity: 117.55%
BT-549
  Activity: 112.82%
T47D
  Activity: 90.49%
MDA-MB-468
  Activity: 101.43%
K562
  Activity: 70.16%
[1]
  Activity: 131.72%
HOP-62
  Activity: 27.45%
HOP-92
  Activity: 109.04%
NCI-H226
  Activity: 99.73%
NCI-H322M
  Activity: 116.31%
NCI-H460
  Activity: 106.8%
NCI-H522
  Activity: 99.72%
HCT-116
  Activity: 107.98%
HCT-15
  Activity: 106.14%
SW-620
  Activity: 118.52%
SF-295
  Activity: 115.95%
SF-539
  Activity: 106.41%
SNB-19
  Activity: 100.88%
SNB-75
  Activity: 83.18%
LOX IMVI
  Activity: 100.88%
Malme-3M
  Activity: 118.68%
M14
  Activity: 114.25%
SK-MEL-2
  Activity: 108.02%
SK-MEL-28
  Activity: 125.12%
SK-MEL-5
  Activity: 104.4%
UACC-257
  Activity: 106.42%
UACC-62
  Activity: 101.92%
IGROV-1
  Activity: 95.43%
OVCAR-3
  Activity: 110.15%
OVCAR-4
  Activity: 107.15%
OVCAR-8
  Activity: 108.71%
A498
  Activity: 112.56%
HL-60(TB)
  Activity: 44.77%
CCRF-CEM
  Activity: 113.04%

## CCCCCC[n+]1ccn(C)c1.O=S(=O)([N-]S(=O)(=O)C(F)(F)F)C(F)(F)F
ACHN
  Activity: 88.98%
CAKI-1
  Activity: 66.14%
RXF 393
  Activity: 103.51%
TK-10
  Activity: 124.14%
DU-145
  Activity: 117.36%
MCF7
  Activity: 106.75%
NCI/ADR-RES
  Activity: 99.76%
MDA-MB-231
  Activity: 86.26%
MDA-MB-435
  Activity: 93.37%
BT-549
  Activity: 119.52%
MDA-MB-468
  Activity: 80.22%
K562
  Activity: 101.77%
[1]
  Activity: 125.38%
HOP-62
  Activity: 89.75%
HOP-92
  Activity: 114.14%
NCI-H226
  Activity: 87.92%
NCI-H322M
  Activity: 113.78%
NCI-H460
  Activity: 90.77%
NCI-H522
  Activity: 81.74%
HCC 2998
  Activity: 90.7%
HCT-116
  Activity: 80.77%
HCT-15
  Activity: 105.5%
SW-620
  Activity: 99.75%
SF-295
  Activity: 101.37%
SF-539
  Activity: 75.4%
SNB-19
  Activity: 95.37%
SNB-75
  Activity: 94.84%
LOX IMVI
  Activity: 92.45%
Malme-3M
  Activity: 102.07%
M14
  Activity: 100.39%
SK-MEL-2
  Activity: 102.62%
SK-MEL-28
  Activity: 135.26%
SK-MEL-5
  Activity: 78.78%
UACC-257
  Activity: 87.47%
UACC-62
  Activity: 92.58%
IGROV-1
  Activity: 85.47%
OVCAR-3
  Activity: 99.74%
OVCAR-4
  Activity: 82.57%
OVCAR-8
  Activity: 84.83%
A498
  Activity: 84.14%
HL-60(TB)
  Activity: 112.14%
CCRF-CEM
  Activity: 121.99%

## CCCCCC[n+]1ccn(C)c1.FC(F)(F)C(F)(F)[P-](F)(F)(F)(C(F)(F)C(F)(F)F)C(F)(F)C(F)(F)F
ACHN
  Activity: 54.23%
CAKI-1
  Activity: 53.43%
RXF 393
  Activity: 92.19%
TK-10
  Activity: 67.04%
DU-145
  Activity: 107.66%
MCF7
  Activity: 62.49%
NCI/ADR-RES
  Activity: 54.24%
MDA-MB-231
  Activity: 73.1%
MDA-MB-435
  Activity: 51.22%
BT-549
  Activity: 54.78%
T47D
  Activity: 55.53%
MDA-MB-468
  Activity: 39.66%
K562
  Activity: 68.14%
[1]
  Activity: 53.67%
HOP-62
  Activity: 88.12%
HOP-92
  Activity: 85.4%
NCI-H226
  Activity: 57.04%
NCI-H322M
  Activity: 77.95%
NCI-H460
  Activity: 51.46%
NCI-H522
  Activity: 58.3%
HCC 2998
  Activity: 76.85%
HCT-116
  Activity: 32.03%
HCT-15
  Activity: 91.62%
SW-620
  Activity: 80.17%
SF-295
  Activity: 70.02%
SF-539
  Activity: 75.55%
SNB-19
  Activity: 82.22%
SNB-75
  Activity: 88.07%
LOX IMVI
  Activity: 59.38%
Malme-3M
  Activity: 102.23%
M14
  Activity: 88.81%
SK-MEL-2
  Activity: 47.53%
SK-MEL-28
  Activity: 100.39%
SK-MEL-5
  Activity: 51.37%
UACC-257
  Activity: 34.16%
UACC-62
  Activity: 68.28%
IGROV-1
  Activity: 78.12%
OVCAR-3
  Activity: 94.84%
OVCAR-4
  Activity: 59.66%
OVCAR-8
  Activity: 60.84%
A498
  Activity: 75.58%
HL-60(TB)
  Activity: 96.2%
CCRF-CEM
  Activity: 65.92%

## CCCCCCCCCCCC[n+]1ccn(C)c1.[Cl-]
ACHN
  Activity: 45.02%
CAKI-1
  Activity: 28.77%
RXF 393
  Activity: -20.81%
TK-10
  Activity: -1.53%
DU-145
  Activity: 6.6%
MCF7
  Activity: 3.94%
NCI/ADR-RES
  Activity: 82.17%
MDA-MB-231
  Activity: 41.54%
MDA-MB-435
  Activity: 7.98%
T47D
  Activity: 24.65%
MDA-MB-468
  Activity: -42.1%
K562
  Activity: 64.21%
[1]
  Activity: 116.34%
HOP-62
  Activity: 38.17%
HOP-92
  Activity: 51.88%
NCI-H226
  Activity: 30.42%
NCI-H322M
  Activity: 57.06%
NCI-H460
  Activity: 23.64%
NCI-H522
  Activity: -19.92%
HCC 2998
  Activity: 31.07%
HCT-116
  Activity: 17.62%
HCT-15
  Activity: 82.04%
SW-620
  Activity: 44.11%
SF-295
  Activity: 9.99%
SF-539
  Activity: 30.45%
SNB-19
  Activity: 45.54%
SNB-75
  Activity: -10.6%
LOX IMVI
  Activity: 23.94%
Malme-3M
  Activity: 24.55%
M14
  Activity: 8.94%
SK-MEL-2
  Activity: 13.06%
SK-MEL-28
  Activity: 34.86%
SK-MEL-5
  Activity: -33.13%
UACC-257
  Activity: -12.38%
UACC-62
  Activity: 31.07%
OVCAR-3
  Activity: 45.92%
OVCAR-4
  Activity: 22.69%
OVCAR-8
  Activity: 11.53%
A498
  Activity: 12.45%
HL-60(TB)
  Activity: 51.9%
CCRF-CEM
  Activity: 110.51%
